Experimental data taken from patent US8349864B2, “Pyrano [3,2-C] pyridones and related heterocyclic compounds as pharmaceutical agents for treating disorders responsive to apoptosis, antiproliferation or vascular disruption, and the use thereof” (New Mexico Technical Research Foundation, priority 2009, dated 2013).

What was measured:
MCF-7 = experiment: MTT cell viability assay, MCF-7 cells; assay type: cell-based; settings: Homo sapiens, MCF7, 48 h treatment, ± SD, two experiments, 8 replicates
HeLa = experiment: MTT cell viability assay, HeLa cells; assay type: cell-based; settings: Homo sapiens, 48 h treatment, ± SD, two experiments, 8 replicates
Jurkat cells [1] = experiment: Flow cytometric annexin-V/propidium iodide apoptosis assay; assay type: cell-based, human; settings: 5 μM, 36 h
Experimental: Since many clinically used anticancer agents induce apoptosis in cancer cells, we tested the pyranopyridone analogues for their ability to induce apoptosis in Jurkat (model for human T-cell leukemia) cells using the flow cytometric annexin-V/propidium iodide assay (FIG. 1).
FIG. 1 illustrates induction of apoptosis in Jurkat cells treated for 36 h with DMSO control, colchicine (5 μM) and selected pyridone library analogues (5 μM) in the flow cytometric annexin-V/propidium iodide assay. Error bars represent data

Jurkat cells [2] = experiment: DNA laddering assay; assay type: cell-based, human; settings: 36 h, 1.5% agarose gel
Experimental: Since endonuclease-mediated cleavage of nuclear DNA resulting in formation of oligonucleosomal DNA fragments (180-200 base pairs long) is a hallmark of apoptosis in many cell types, apoptosis was further investigated with the DNA laddering assay (FIG. 2). Jurkat cells were treated with DMSO (lane A), analogues 40 and 41 (lanes B and C), and paclitaxel (lane D) for 36 h. After that the cellular DNA was isolated and electrophoresed in a 1.5% agarose gel. […] No laddering was observed when the cells were treated with DMSO control.
FIG. 2 illustrates DNA laddering in Jurkat cells after 36 h of treatment. (A) DMSO control, (B) 40 at 1.5 μM, (C) 41 at 1.5 μM, (D) paclitaxel at 0.4 μM, and (E) Molecular weight marker (KB).

tubulin = experiment: In vitro tubulin polymerization (fluorescence); assay type: biochemical; settings: relative to 0.05% DMSO control
Description: To obtain further support for the proposed antitubulin mechanism of action for our heterocycles, we assessed the effect of pyranoquinolones on in vitro tubulin polymerization. In this assay microtubule formation is monitored by the increase in fluorescence intensity of the reaction mixture.
FIG. 4 illustrates the effect of our compounds on in vitro tubulin polymerization.

Jurkat cells [3] = experiment: Light microscopy of morphological changes; assay type: cell-based, human; settings: 1 μM, 2 h
Experimental: Morphological changes of cells treated with potent analogues can be visually observed with light microscopy (FIG. 3).
FIG. 3 illustrates light microscopy pictures. Treatment of Jurkat cells with 40 (C) and 41 (D) for 2 hours induces formation of finger-like extensions (black arrows) and shriveling (white arrows). 0.1% DMSO (A) and a known anticancer agent (B) were used as controls. All compounds are used at 1 μM. The scale bar indicates 40 μm.

Jurkat cells [4] = experiment: Flow cytometric cell cycle analysis (Vybrant Orange staining); assay type: cell-based, human; settings: for cell cycle arrest: Jurkat cell line, flow cytometric cell cycle analysis; for % relative DNA content G0/G1 / % relative DNA content G2/M / % relative DNA content S: Jurkat, 1 μM, 24 h, ± SD
Description: Our libraries of compounds exert their antiproliferative properties through inhibition of tubulin dynamics, thereby inducing mitotic arrest and initiating apoptosis in cancer cells. […] This effect is characteristic of antimitotic agents disrupting microtubule assembly.

SMILES	GI50 (MCF-7)	GI50 (HeLa)	other results
Cc1cc2c(c(=O)n1C)C(c1ccc(N(C)C)c(Br)c1)C(C#N)=C(N)O2 (stereo not shown) [Compound 8, 2-Amino-4-[3-bromo-4-(dimethylamino)phenyl]-6,7-dimethyl-5-oxo-5,6-dihydro-4H-pyrano[3,2-c]pyridine-3-carbonitrile]		330 ± 60 nM	
COc1cc(C2C(C#N)=C(N)Oc3cc(C)n(C)c(=O)c32)cc(Br)c1OC (stereo not shown) [Compound 9, 2-Amino-4-(3-bromo-4,5-dimethoxyphenyl)-6,7-dimethyl-5-oxo-5,6-dihydro-4H-pyrano[3,2-c]pyridine-3-carbonitrile]		580 ± 140 nM	
CCOc1c(Br)cc(C2C(C#N)=C(N)Oc3cc(C)n(C)c(=O)c32)cc1OC (stereo not shown) [Compound 10, 2-Amino-4-(3-bromo-4-ethoxy-5-methoxyphenyl)-6,7-dimethyl-5-oxo-5,6-dihydro-4H-pyrano[3,2-c]pyridine-3-carbonitrile]		1100 ± 800 nM	
COc1cc(C2C(C#N)=C(N)Oc3cc(C)n(C)c(=O)c32)cc(Br)c1O (stereo not shown) [Compound 11, 2-Amino-4-(3-bromo-4-hydroxy-5-methoxyphenyl)-6,7-dimethyl-5-oxo-5,6-dihydro-4H-pyrano[3,2-c]pyridine-3-carbonitrile]		2700 ± 1100 nM	
COc1cc(C2C(C#N)=C(N)Oc3cc(C)n(C)c(=O)c32)cc(Br)c1OC(C)=O (stereo not shown) [Compound 12, 4-(2-Amino-3-cyano-6,7-dimethyl-5-oxo-5,6-dihydro-4H-pyrano[3,2-c]pyridin-4-yl)-2-bromo-6-methoxyphenyl acetate]		3500 ± 1300 nM	
Cc1cc2c(c(=O)n1C)C(c1ccc(F)c(Br)c1)C(C#N)=C(N)O2 (stereo not shown) [Compound 13, 2-Amino-4-(3-bromo-4-fluorophenyl)-6,7-dimethyl-5-oxo-5,6-dihydro-4H-pyrano[3,2-c]pyridine-3-carbonitrile]		6400 ± 1100 nM	
Cc1cc2c(c(=O)n1C)C(c1cccc(Br)c1)C(C#N)=C(N)O2 (stereo not shown) [Compound 14, 2-Amino-4-(3-bromophenyl)-6,7-dimethyl-5-oxo-5,6-dihydro-4H-pyrano[3,2-c]pyridine-3-carbonitrile]		6500 ± 1300 nM	
Cc1cc2c(c(=O)n1C)C(c1ccc(Cl)c(Cl)c1)C(C#N)=C(N)O2 (stereo not shown) [Compound 15, 2-Amino-4-(3,4-dichlorophenyl)-6,7-dimethyl-5-oxo-5,6-dihydro-4H-pyrano[3,2-c]pyridine-3-carbonitrile]		18300 ± 2900 nM	induction of apoptosis in Jurkat cells (Jurkat cells [1]): do not induce apoptosis
Cc1cc2c(c(=O)n1C)C(c1ccc(C(C)C)cc1)C(C#N)=C(N)O2 (stereo not shown) [Compound 17, 2-Amino-4-(4-isopropylphenyl)-6,7-dimethyl-5-oxo-5,6-dihydro-4H-pyrano[3,2-c]pyridine-3-carbonitrile]		> 100000 nM	induction of apoptosis in Jurkat cells (Jurkat cells [1]): do not induce apoptosis
COc1ccc(CCn2c(C)cc3c(c2=O)C(c2cc(OC)c(OC)c(OC)c2)C(C#N)=C(N)O3)cc1OC (stereo not shown) [Compound 20, 2-Amino-6-(3,4-dimethoxyphenethyl)-7-methyl-5-oxo-4-(3,4,5-trimethoxyphenyl)-5,6-dihydro-4H-pyrano[3,2-c]pyridine-3-carbonitrile]		22700 ± 6400 nM	induction of apoptosis in Jurkat cells (Jurkat cells [1]): do not induce apoptosis
COc1cc(C2C(C#N)=C(N)Oc3c2c(=O)n(C)c2ccccc32)cc([N+](=O)[O-])c1O (stereo not shown) [Compound 25, 2-Amino-4-(4-hydroxy-3-methoxy-5-nitrophenyl)-6-methyl-5-oxo-5,6-dihydro-4H-pyrano[3,2-c]quinoline-3-carbonitrile]	710 ± 120 nM	630 ± 20 nM	
Cn1c(=O)c2c(c3ccccc31)OC(N)=C(C#N)C2c1cccc(Br)c1 (stereo not shown) [Compound 37, 2-Amino-4-(3-bromophenyl)-6-methyl-5-oxo-5,6-dihydro-4H-pyrano[3,2-c]quinoline-3-carbonitrile]	3 ± 1 nM	740 ± 30 nM	
COc1ccc(C2C(C#N)=C(N)Oc3c2c(=O)n(C)c2ccccc32)cc1Br (stereo not shown) [Compound 43, 2-Amino-4-(3-bromo-4-methoxyphenyl)-6-methyl-5-oxo-5,6-dihydro-4H-pyrano[3,2-c]quinoline-3-carbonitrile]	500 ± 100 nM	410 ± 40 nM	
CC(=O)O[C@H]1C(=O)[C@@]2(C)[C@H]([C@H](OC(=O)c3ccccc3)[C@]3(O)C[C@H](OC(=O)[C@H](O)[C@@H](NC(=O)c4ccccc4)c4ccccc4)C(C)=C1C3(C)C)[C@]1(OC(C)=O)CO[C@@H]1C[C@@H]2O [paclitaxel, reference compound]			DNA laddering in Jurkat cells (Jurkat cells [2]; 0.4 μM): characteristic ladder pattern was obtained; effect on in vitro tubulin polymerization (tubulin; 3 μM): promotes microtubule formation
COc1cc([C@@H]2c3cc4c(cc3[C@H](O)[C@H]3COC(=O)[C@H]23)OCO4)cc(OC)c1OC [podophyllotoxin, reference compound]			effect on in vitro tubulin polymerization (tubulin; 25 μM): completely suppress tubulin polymerization

Further molecules by falling GI50 (HeLa), results first:

GI50 (MCF-7)	GI50 (HeLa)	SMILES	other results
810 ± 80 nM	270 ± 30 nM	Cn1c(=O)c2c(c3ccccc31)OC(N)=C(C#N)C2c1ccc(F)c(Br)c1 (stereo not shown) [Compound 38, 2-Amino-4-(3-bromo-4-fluorophenyl)-6-methyl-5-oxo-5,6-dihydro-4H-pyrano[3,2-c]quinoline-3-carbonitrile]	
430 ± 10 nM	270 ± 20 nM	Cn1c(=O)c2c(c3ccccc31)OC(N)=C(C#N)C2c1cc(Br)c(O)c(Br)c1 (stereo not shown) [Compound 39, 2-Amino-4-(3,5-dibromo-4-hydroxyphenyl)-6-methyl-5-oxo-5,6-dihydro-4H-pyrano[3,2-c]quinoline-3-carbonitrile]	
1000 ± 300 nM	240 ± 20 nM	COc1cc(C2C(C#N)=C(N)Oc3c2c(=O)n(C)c2ccccc32)cc(OC)c1OC (stereo not shown) [Compound 22, 2-Amino-6-methyl-5-oxo-4-(3,4,5-trimethoxyphenyl)-5,6-dihydro-4H-pyrano[3,2-c]quinoline-3-carbonitrile]	
25 ± 60 nM	180 ± 20 nM	COc1cc(C2C(C#N)=C(N)Oc3c2c(=O)n(C)c2ccccc32)cc(Br)c1OC(C)=O (stereo not shown) [Compound 4, 4-(2-Amino-3-cyano-6-methyl-5-oxo-5,6-dihydro-4H-pyrano[3,2-c]quinolin-4-yl)-2-bromo-6-methoxyphenyl acetate]	
75 ± 7 nM	77 ± 6 nM	Cn1c(=O)c2c(c3ccccc31)OC(N)=C(C#N)C2c1cc(Br)cc(Br)c1 (stereo not shown) [Compound 42, 2-Amino-4-(3,5-dibromophenyl)-6-methyl-5-oxo-5,6-dihydro-4H-pyrano[3,2-c]quinoline-3-carbonitrile]	
390 ± 160 nM	47 ± 10 nM	COc1cc(C2C(C#N)=C(N)Oc3c2c(=O)n(C)c2ccccc32)cc(Br)c1O (stereo not shown) [Compound 40, 2-Amino-4-(3-bromo-4-hydroxy-5-methoxyphenyl)-6-methyl-5-oxo-5,6-dihydro-4H-pyrano[3,2-c]quinoline-3-carbonitrile]	DNA laddering in Jurkat cells (Jurkat cells [2]; 1.5 μM): characteristic ladder pattern was obtained; effect on in vitro tubulin polymerization (tubulin; 25 μM): completely suppress tubulin polymerization; morphological (phenotypic) changes of Jurkat cells (Jurkat cells [3]): formation of finger-like extensions and shriveling; cell cycle arrest (Jurkat cells [4]): pronounced cell cycle arrest in the G2/M phase; % relative DNA content G0/G1 (Jurkat cells [4]): 27 ± 3%; % relative DNA content G2/M (Jurkat cells [4]): 47 ± 3%; % relative DNA content S (Jurkat cells [4]): 22 ± 2%
380 ± 30 nM	14 ± 3 nM	COc1cc(C2C(C#N)=C(N)Oc3c2c(=O)n(C)c2ccccc32)cc(Br)c1OC (stereo not shown) [Compound 41, 2-Amino-4-(3-bromo-4,5-dimethoxyphenyl)-6-methyl-5-oxo-5,6-dihydro-4H-pyrano[3,2-c]quinoline-3-carbonitrile]	DNA laddering in Jurkat cells (Jurkat cells [2]; 1.5 μM): characteristic ladder pattern was obtained; effect on in vitro tubulin polymerization (tubulin; 25 μM): completely suppress tubulin polymerization; morphological (phenotypic) changes of Jurkat cells (Jurkat cells [3]): formation of finger-like extensions and shriveling; cell cycle arrest (Jurkat cells [4]): pronounced cell cycle arrest in the G2/M phase; % relative DNA content G0/G1 (Jurkat cells [4]): 20 ± 2%; % relative DNA content G2/M (Jurkat cells [4]): 49 ± 2%; % relative DNA content S (Jurkat cells [4]): 28 ± 2%
15 ± 8 nM	13 ± 3 nM	Cn1c(=O)c2c(c3ccccc31)OC(N)=C(C#N)C2c1cncc(Br)c1 (stereo not shown) [Compound 3, 2-Amino-4-(5-bromo-3-pyridinyl)-6-methyl-5-oxo-5,6-dihydro-4H-pyrano[3,2-c]quinoline-3-carbonitrile]	
